According to patent publication US11446309B2, “Combination therapy for cancer using bromodomain and extra-terminal (BET) protein inhibitors” (Dana-Farber Cancer Institute, Inc., priority 2013, dated 2022):

System: H2122 human lung cancer line, m855 mouse GEM line, diffuse large B-cell lymphoma and Burkitt's lymphoma cell lines
Test: Combination with JQ1, cell viability isobolograms (cell line not stated for the result)
Type: cell-based
Conditions: for Effect on JQ1 activity at doses where the agent alone has no effect: in combination with JQ1, doses where they alone have no effect
Method: Compounds were profiled against H2122 human lung cancer line and m855 mouse GEM line containing p53/kRas mutations. Compounds were also profiled against diffuse large B-cell lymphoma cell lines OCI-Ly1, OCI-Ly3, OCI-Ly4, OCI-Ly7, S-DHL4, SU-DHL6, SU-DHL7, HBL1, K422, U2932 and Toledo, and against Burkitt's lymphoma cell lines Raji and Ca46.
Using a Biotek EL406, 50 uL of cell media containing 20-60,000 cells/ml was distributed into white 384-well Nunc plates (Thermo). Suspension cells then received compound immediately while adherent cells lines were given one hour to reattach to the surface of the plate prior to compound addition. The compounds to be tested were dissolved in DMSO and arrayed on 384 well compound storage plates (Greiner). Each compound plate received one compound in 5 point dose response approximately centered on the IC50 of the given compound for a given cell line.
After addition of compound, cell plates were incubated for 72 hr in a […] incubator. Cell viability was evaluated using ATPlite (Perkin Elmer) following manufacturer protocols. Data was analyzed in CalcuSyn utilizing the median effect principle of presented by Chou-Talalay and visualized using GraphPad Prism Software. Key parameters assessed were combination index and dose reduction index.
Points below the 1 to 1 line connecting the X and Y axes are ‘synergistic’, points near the line are ‘additive’, and points above it are antagonistic.

| SMILES | Type of response when administered in combination with JQ1 (isobologram) | Effect on JQ1 activity at doses where the agent alone has no effect |
| --- | --- | --- |
| Cn1c(=O)n(-c2ccc(C(C)(C)C#N)cc2)c2c3cc(-c4cnc5ccccc5c4)ccc3ncc21 [BEZ235] | additive effects | increased the effect of JQ1 |
| NC1(c2ccc(-c3nc4ccn5c(=O)[nH]nc5c4cc3-c3ccccc3)cc2)CCC1 [MK2206] | synergistic response |  |
| C[C@@H](Oc1cc(-c2cnn(C3CCNCC3)c2)cnc1N)c1c(Cl)ccc(F)c1Cl [crizotinib] | synergistic response |  |
| COc1cc([C@@H]2c3cc4c(cc3[C@@H](O[C@@H]3O[C@@H]5CO[C@@H](C)O[C@H]5[C@H](O)[C@H]3O)[C@H]3COC(=O)[C@H]23)OCO4)cc(OC)c1O [etoposide] | synergistic response |  |
| CO[C@H]1C[C@@H]2CC[C@@H](C)[C@@](O)(O2)C(=O)C(=O)N2CCCC[C@H]2C(=O)O[C@H]([C@H](C)C[C@@H]2CC[C@@H](OC(=O)C(C)(CO)CO)[C@H](OC)C2)CC(=O)[C@H](C)/C=C(\C)[C@@H](O)[C@@H](OC)C(=O)[C@H](C)C[C@H](C)/C=C/C=C/C=C/1C [temsirolimus] | additive effects | increased the effect of JQ1 |
